# Results taken from patent US12161641B2, “Treatments and prevention of opioid neonatal abstinence syndrome” (Ohio State Innovation Foundation, priority 2016, dated 2024).
# What was measured:
# [1] = Drug levels in plasma, brain and liver during postnatal development; settings: for Plasma levels: 45 minutes after single injection; for Brain / Liver / Plasma: single injection
# Description: Drugs were dissolved in saline at concentrations between 10 and 20 mg/ml, and all dilutions were made in saline. Morphine was purchased from the Ohio State Medical Center pharmacy as a 15 mg/ml solution in saline. Animals were injected subcutaneously in the region around the right hind-quarters. […] After injection and variable survival times adult and pregnant mice were euthanized by cervical dislocation, and brain, liver and plasma were collected, quickly frozen on dry-ice and stored at −70° C. until processing After euthanizing the dam, embryos were collected into a large (150×15 mm) petri dish and kept on ice while maternal tissues were processed. All embryonic tissues were then dissected and collected in a cold room at 4° C. in order to facilitate and preserve tissue integrity during dissection, then stored at −70° C. […] Samples were later thawed, processed and analyzed via liquid chromatography-tandem mass spectrometry (LC-MS/MS) to quantify levels of drug. Detailed methods for tissue processing and LC-MS/MS analysis are located in the supplemental information.
# [2] = test system: pre-weaning age mice; test: Naloxone-induced withdrawal jumping after morphine dosing in early postnatal mice; format: in vivo
# Description: Animals were injected with morphine alone or morphine mixed with increasing amounts of 6β-naltrexol. Injections were started on postnatal day 12 (PD12) and continued for 5 days. On days 1-3 morphine was injected at 10 mg/kg, and at 20 mg/kg on days 4 and 5. On day 6 (PD18) a final injection of 20 mg/kg was made, and 3 hours later mice were injected with 30 mg/kg naloxone to induce withdrawal. All injections were subcutaneous. When Morphine was co-injected with 6β-naltrexol the latter was held at a constant ratio when the Morphine dose was increased on days 4-6. Because of the changing Morphine dosages the 6β-naltrexol dose is reported as a ratio relative to Morphine, or as a dose range. Immediately upon injection with naloxone mice were placed in a clear plastic container with a 6 inch square base and 10 inches tall, with a lid. Withdrawal jumping was videotaped and jumps were scored in a 15 minute interval.
# Summary data are presented as means+1 SEM unless otherwise indicated Continuous data (drug concentrations) were analyzed using one-way ANOVA and post hoc comparisons were made using either Dunnett's procedure (for one-to-many comparisons) or t-tests (for all-pairs contrasts). In the latter case, p-values were adjusted for multiple comparisons using Hommel's method (Hommel, G. (1988) Biometrika 75:383-386). Data were log transformed to account for heteroscedasticity. When ratio values such as the brain/plasma ratio were compared, these were log-transformed before analysis to account for the constrained structure of ratio variables (e.g., Heslop, D. (2009) Geophys. J. Int. 178:159-161; Schilling K, et al. (2012) J Neurosci. 32:12651-12656). The dependence of jumping behavior on 6β-naltrexol levels was modelled using a 4-parametric log-normal curve taking into account that the response was a count variable. AUCs were integrated over the time span analyzed (i.e., from 0 to 240 min; Wolfsegger, M J, et al. (2009) J Pharmacokinet Pharmacodyn 36:479-494). Confidence intervals for AUCs were obtained by bootstrapping, as recommended in Jaki & Wolfsegger (Jaki, T, et al (2009) Pharmaceutical Statistics 8:12-24). All statistical procedures were implemented in R (R Core Team, 2015), using the packages multcomp (Hothorn, T, et al. (2008) Biometrical Journal 50:346-363) for multiple comparisons, PK (Jaki, T, et al. (2011) Pharmaceutical Statistics 10:284-288) for pharmacokinetic analyses, and drc (Ritz, C, et al. (2005) Bioassay analysis using R. J. Stat. Softw. 12:22) for dose-response fitting.
# Considering that 6β-naltrexol continues to penetrate the brain at high levels prior to PD20 experiments were conducted to determine whether concomitant administration of 6β-naltrexol reduces withdrawal behaviors in pre-weaning age mice. A morphine dosing schedule was adapted based on studies in early postnatal rats and adult mice (Kest B. et al. (2002) Neuroscience 115:463-469; Jones, K L, et al. (1995) Behav. Neurosci. 109:1189-1198). Mice were injected with morphine alone, with morphine in combination with increasing concentrations of 6β-naltrexol, or saline alone, starting at P12 and continuing for 6 days. Withdrawal was then induced with an injection of naloxone. There was robust jumping characteristic of adult withdrawal behavior (Kest B, et al. (2002) Neuroscience 115.463-469), but not previously reported for pre-weaning mice or rats to our knowledge. […] At the highest dose tested, 0.5-1.0 mg/kg (= 1/20th that of morphine), withdrawal jumping is 94% reduced. The lowest 6β-naltrexol dose tested, 0.0033-0.0066 mg/kg (= 1/3000th that of morphine) caused a 20% decrease in jumping. There is also a time component to the effect of 6β-naltrexol on jumping behavior (FIG. 3B). As 6β-naltrexol levels were increased the jumps observed in a 15 minute testing bout were increasingly delayed. […]
structure (smiles),measurement,setting,value
Oc1ccc2c3c1O[C@H]1[C@H](O)CC[C@@]4(O)[C@@H](C2)N(CC2CC2)CC[C@]314 [6β-naltrexol],Plasma levels,[1]; PD7,3660+350 ng/ml
same,Brain:Plasma Kp ratio,"[1]; PD7, survival time 45 min",0.86
same,Liver:Plasma Kp ratio,"[1]; PD7, survival time 45 min",4.3
same,Brain,"[1]; PD7, survival time 45 min",3030 ± 340 ng/g
same,Liver,"[1]; PD7, survival time 45 min",15220 ± 1750 ng/g
same,Plasma,"[1]; PD7, survival time 45 min",3513 ng/mL
same,Brain:Plasma Kp ratio,"[1]; PD14, survival time 45 min",2
same,Liver:Plasma Kp ratio,"[1]; PD14, survival time 45 min",3.6
same,Brain,"[1]; PD14, survival time 45 min",2860 ± 800 ng/g
same,Liver,"[1]; PD14, survival time 45 min",5050 ± 1260 ng/g
same,Plasma,"[1]; PD14, survival time 45 min",1410 ± 370 ng/mL
same,Brain:Plasma Kp ratio,"[1]; PD20, survival time 20 min",0.33
same,Liver:Plasma Kp ratio,"[1]; PD20, survival time 20 min",1.7
same,Brain,"[1]; PD20, survival time 20 min",350 ± 20 ng/g
same,Liver,"[1]; PD20, survival time 20 min",1830 ± 70 ng/g
same,Plasma,"[1]; PD20, survival time 20 min",1070 ± 100 ng/mL
same,brain:plasma KP ratios,[1]; PD20 and older,0.22-0.35
same,Plasma levels,[1]; PD32,170+30 ng/ml
same,Brain:Plasma Kp ratio,"[1]; PD32, survival time 20 min",0.22
same,Liver:Plasma Kp ratio,"[1]; PD32, survival time 20 min",1.3
same,Brain,"[1]; PD32, survival time 20 min",260 ± 80 ng/g
same,Liver,"[1]; PD32, survival time 20 min",1510 ± 640 ng/g
same,Plasma,"[1]; PD32, survival time 20 min",1160 ± 730 ng/mL
same,Brain:Plasma Kp ratio,"[1]; PD50, survival time 45 min",0.35
same,Liver:Plasma Kp ratio,"[1]; PD50, survival time 45 min",1.9
same,Brain,"[1]; PD50, survival time 45 min",150 ± 10 ng/g
same,Liver,"[1]; PD50, survival time 45 min",820 ± 80 ng/g
same,Plasma,"[1]; PD50, survival time 45 min",430 ± 40 ng/mL
same,Plasma levels,[1]; adults,930+220 ng/ml
same,liver:plasma KP ratios,[1]; all ages,1.3-4.2
same,total jumps in the first three time bins (up to 4.5 mins),"[2]; 0.0033 mg/kg, 73+28 with no 6β-naltrexol, p=0.07",37+29 jumps
same,latency-to-first-jump,[2]; 0.01-0.02 mg/kg (1/1000th the dose of morphine),118+31 sec
same,latency-to-first-jump,[2]; 0.05-0.1 mg/kg (1/200th the dose of morphine),163+46 sec
same,Survival,[2]; all conditions and all animals tested by this procedure,100%
same,"inhibitory dose 50 (ID50), withdrawal jumping","[2]; co-injected with morphine 10-20 mg/kg s.c. PD12-PD18, naloxone 30 mg/kg, jumps in 15 minutes",0.022 to 0.044 mg/kg
same,withdrawal jumping reduced,"[2]; highest dose tested, 0.5-1.0 mg/kg (1/20th that of morphine)",94%
same,latency-to-first-jump,"[2]; lowest dose (1/3000th the dose of morphine), 38+8 sec with no 6β-naltrexol",128+44 sec
same,decrease in jumping,"[2]; lowest dose tested, 0.0033-0.0066 mg/kg (1/3000th that of morphine)",20%
same,ID50 dose lower than the morphine dose used for inducing dependence,"[2]; mouse, in vivo",~500 fold
same,ID50 relative to the morphine dose,[2]; ratio of 6β-naltrexol to morphine,1/450
